Reference: BindingDB's records for doi:10.1016/j.bmc.2010.11.049 (Bryn Mawr College, 2011)
pIC50: −log10 of the molar value.

Experiment: Inhibition of HIV1 YU2 gp120 binding to CD4 expressing Cf2Th-CD4/CCR5 cells assessed as inhibition of viral infection after 48 hrs

| Structure (SMILES) | pIC50 |
| --- | --- |
| CN1CCN(C(CNC(=O)C(=O)Nc2ccc(Cl)c(F)c2)c2cccs2)CC1 (stereo not drawn) [N1-(4-chloro-3-fluorophenyl)-N2-(2-(4-methylpiperazin-1-yl)-2-(thiophen-2-yl)ethyl)oxalamide] | < 4.00 |
| C[C@@H]1CCC[C@H](C)N1CCNC(=O)C(=O)Nc1ccc(Cl)c(F)c1 [N1-(4-chloro-3-fluorophenyl)-N2-(2-((2S,6R)-2,6-dimethylpiperidin-1-yl)ethyl)oxalamide] | 4.12 |
| CCN(CC)C(CNC(=O)C(=O)Nc1ccc(Cl)c(F)c1)CC(C)C (stereo not drawn) [N1-(4-chloro-3-fluorophenyl)-N2-(2-(diethylamino)-4-methylpentyl)oxalamide] | < 4.00 |
| CN(C)C(CNC(=O)C(=O)Nc1ccc(Cl)c(F)c1)c1ccco1 (stereo not drawn) [N1-(4-chloro-3-fluorophenyl)-N2-(2-(dimethylamino)-2-(furan-2-yl)ethyl)oxalamide] | < 4.00 |
| CN(C)C(CNC(=O)C(=O)Nc1ccc(Cl)c(F)c1)N1CCCC1 (stereo not drawn) [N1-(4-chloro-3-fluorophenyl)-N2-(2-(dimethylamino)-2-(pyrrolidin-1-yl)ethyl)oxalamide] | < 4.00 |
| O=C(NCC(c1ccco1)N1CCCC1)C(=O)Nc1ccc(Cl)c(F)c1 (stereo not drawn) [N1-(4-chloro-3-fluorophenyl)-N2-(2-(furan-2-yl)-2-(pyrrolidin-1-yl)ethyl)oxalamide] | < 4.00 |
| O=C(NCc1ccccc1CN1CCOCC1)C(=O)Nc1ccc(Cl)c(F)c1 [N1-(4-chloro-3-fluorophenyl)-N2-(2-(morpholinomethyl)benzyl)oxalamide] | 4.69 |
| CC(C)(CNC(=O)C(=O)Nc1ccc(Cl)c(F)c1)N1CCOCC1 [N1-(4-chloro-3-fluorophenyl)-N2-(2-methyl-2-morpholinopropyl)oxalamide] | < 4.00 |
| CCc1n[nH]c(NC(=O)C(=O)Nc2ccc(Cl)c(F)c2)c1CC [N1-(4-chloro-3-fluorophenyl)-N2-(3,4-diethyl-1H-pyrazol-5-yl)oxalamide] | < 4.00 |
| CC1(C)Cc2c(sc(NC(=O)C(=O)Nc3ccc(Cl)c(F)c3)c2C#N)C(C)(C)N1 [N1-(4-chloro-3-fluorophenyl)-N2-(3-cyano-5,5,7,7-tetramethyl-4,5,6,7-tetrahydrothieno[2,3-c]pyridin-2-yl)oxalamide] | < 4.00 |
| Cn1ccnc1C(O)(CCNC(=O)C(=O)Nc1ccc(Cl)c(F)c1)C(F)(F)F (stereo not drawn) [N1-(4-chloro-3-fluorophenyl)-N2-(4,4,4-trifluoro-3-hydroxy-3-(1-methyl-1H-imidazol-2-yl)butyl)oxalamide] | < 4.00 |
| O=C(Nc1ccc(Cl)c(F)c1)C(=O)NC1CCc2[nH]ncc2C1 (stereo not drawn) [N1-(4-chloro-3-fluorophenyl)-N2-(4,5,6,7-tetrahydro-1H-indazol-5-yl)oxalamide] | < 4.00 |
| O=C(Nc1ccc(Cl)c(F)c1)C(=O)Nc1cnn2c1NCCC2 [N1-(4-chloro-3-fluorophenyl)-N2-(4,5,6,7-tetrahydropyrazolo[1,5-a]pyrimidin-3-yl)oxalamide] | < 4.00 |
| CNS(=O)(=O)Cc1ccc(CNC(=O)C(=O)Nc2ccc(Cl)c(F)c2)cc1 [N1-(4-chloro-3-fluorophenyl)-N2-(4-(N-methylsulfamoylmethyl)benzyl)oxalamide] | < 4.00 |
| CNC(=O)c1ccc(CNC(=O)C(=O)Nc2ccc(Cl)c(F)c2)cc1 [N1-(4-chloro-3-fluorophenyl)-N2-(4-(methylcarbamoyl)benzyl)oxalamide] | < 4.00 |
| O=C(Nc1ccc(Cl)c(F)c1)C(=O)NC1CCNC2(CCC2)C1 (stereo not drawn) [N1-(4-chloro-3-fluorophenyl)-N2-(5-azaspiro[3.5]nonan-8-yl)oxalamide] | 4.41 |
| O=C(NCC1NCCc2ccccc21)C(=O)Nc1ccc(Cl)c(F)c1 (stereo not drawn) [N1-(4-chloro-3-fluorophenyl)-N2-((1,2,3,4-tetrahydroisoquinolin-1-yl)methyl)oxalamide] | 4.30 |
| O=C(NCc1[nH]nc2c1CCCCC2)C(=O)Nc1ccc(Cl)c(F)c1 [N1-(4-chloro-3-fluorophenyl)-N2-((1,4,5,6,7,8-hexahydrocyclohepta[c]pyrazol-3-yl)methyl)oxalamide] | < 4.00 |
| O=C(NCC1CCCN(CCO)C1)C(=O)Nc1ccc(Cl)c(F)c1 (stereo not drawn) [N1-(4-chloro-3-fluorophenyl)-N2-((1-(2-hydroxyethyl)piperidin-3-yl)methyl)oxalamide] | 4.56 |
| O=C(NCC1CCN(CCN2CCOCC2)C1)C(=O)Nc1ccc(Cl)c(F)c1 (stereo not drawn) [N1-(4-chloro-3-fluorophenyl)-N2-((1-(2-morpholinoethyl)pyrrolidin-3-yl)methyl)oxalamide] | < 4.00 |
| CCN1CCCC1CNC(=O)C(=O)Nc1ccc(Cl)c(F)c1 (stereo not drawn) [N1-(4-chloro-3-fluorophenyl)-N2-((1-ethylpyrrolidin-2-yl)methyl)oxalamide] | 4.07 |
| CN1CCCC(CNC(=O)C(=O)Nc2ccc(Cl)c(F)c2)C1 (stereo not drawn) [N1-(4-chloro-3-fluorophenyl)-N2-((1-methylpiperidin-3-yl)methyl)oxalamide] | < 4.00 |
| CN1CCC(CNC(=O)C(=O)Nc2ccc(Cl)c(F)c2)CC1 [N1-(4-chloro-3-fluorophenyl)-N2-((1-methylpiperidin-4-yl)methyl)oxalamide] | < 4.00 |
| CC1(C)CC(CNC(=O)C(=O)Nc2ccc(Cl)c(F)c2)CC(C)(C)N1 [N1-(4-chloro-3-fluorophenyl)-N2-((2,2,6,6-tetramethylpiperidin-4-yl)methyl)oxalamide] | 4.48 |

| Structure (SMILES) | pIC50 |
| --- | --- |
| Cc1n[nH]c(C)c1CNC(=O)C(=O)Nc1ccc(Cl)c(F)c1 [N1-(4-chloro-3-fluorophenyl)-N2-((3,5-dimethyl-1H-pyrazol-4-yl)methyl)oxalamide] | 4.19 |
| CN1CCC(CNC(=O)C(=O)Nc2ccc(Cl)c(F)c2)(N(C)C)CC1 [N1-(4-chloro-3-fluorophenyl)-N2-((4-(dimethylamino)-1-methylpiperidin-4-yl)methyl)oxalamide] | < 4.00 |
| O=C(NC[C@@H]1CCCN2CCCC[C@H]12)C(=O)Nc1ccc(Cl)c(F)c1 [N1-(4-chloro-3-fluorophenyl)-N2-(((1S,9aR)-octahydro-1H-quinolizin-1-yl)methyl)oxalamide] | < 4.00 |
| O=C(NC[C@@]12CCC[C@@H]1CNC2)C(=O)Nc1ccc(Cl)c(F)c1 [N1-(4-chloro-3-fluorophenyl)-N2-(((3aS,6aS)-octahydrocyclopenta[c]pyrrol-3a-yl)methyl)oxalamide] | 4.17 |
| O=C(NCC1CCNCC1)C(=O)Nc1ccc(Cl)c(F)c1 [N1-(4-chloro-3-fluorophenyl)-N2-(piperidin-4-ylmethyl)oxalamide] | < 4.00 |
| CN(C(=O)C(=O)Nc1ccc(Cl)c(F)c1)C1CC(C)(C)NC(C)(C)C1 [N1-(4-chloro-3-fluorophenyl)-N2-methyl-N2-(2,2,6,6-tetramethylpiperidin-4-yl)oxalamide] | < 4.00 |
| CC(C)Oc1cc(NC(=O)C(=O)NC2CC(C)(C)NC(C)(C)C2)ccc1Cl [N1-(4-chloro-3-isopropoxyphenyl)-N2-(2,2,6,6-tetramethylpiperidin-4-yl)oxalamide] | < 4.00 |
| COc1cc(NC(=O)C(=O)NC2CC(C)(C)NC(C)(C)C2)ccc1Cl [N1-(4-chloro-3-methoxyphenyl)-N2-(2,2,6,6-tetramethylpiperidin-4-yl)oxalamide] | < 4.00 |
| CN(C(=O)C(=O)NC1CC(C)(C)NC(C)(C)C1)c1ccc(Cl)cc1 [N1-(4-chlorophenyl)-N1-methyl-N2-(2,2,6,6-tetramethylpiperidin-4-yl)oxalamide] | < 4.00 |
| COc1cccc(CNC(=O)C(=O)Nc2ccc(Cl)cc2)c1 [N1-(4-chlorophenyl)-N2-(3-methoxybenzyl)oxalamide] | < 4.00 |
| COc1cccc(NC(=O)C(=O)Nc2ccc(Cl)cc2)c1 [N1-(4-chlorophenyl)-N2-(3-methoxyphenyl)oxalamide] | < 4.00 |
| CCN1CCCC1CNC(=O)C(=O)Nc1ccc(Cl)cc1 (stereo not drawn) [N1-(4-chlorophenyl)-N2-((1-ethylpyrrolidin-2-yl)methyl)oxalamide] | 4.23 |
| Nc1ncc(CNC(=O)C(=O)Nc2ccc(Cl)c(F)c2)cn1 [N1-((2-aminopyrimidin-5-yl)methyl)-N2-(4-chloro-3-fluorophenyl)oxalamide] | < 4.00 |
| CC(C)(C)c1cc(CNC(=O)C(=O)Nc2ccc(Cl)c(F)c2)[nH]n1 [N1-((5-tert-butyl-1H-pyrazol-3-yl)methyl)-N2-(4-chloro-3-fluorophenyl)oxalamide] | < 4.00 |
| CC1(C)O[C@@H](CN)[C@H](CNC(=O)C(=O)Nc2ccc(Cl)c(F)c2)O1 [N1-(((4S,5S)-5-(aminomethyl)-2,2-dimethyl-1,3-dioxolan-4-yl)methyl)-N2-(4-chloro-3-fluorophenyl)oxalamide] | 4.12 |
| O=C(NCc1ccc2c(c1)OCO2)C(=O)Nc1ccc(Br)cc1 [N1-(benzo[d][1,3]dioxol-5-ylmethyl)-N2-(4-bromophenyl)oxalamide] | < 4.00 |
| CC1(C)CC(NC(=O)C(=O)Nc2ccc3ccccc3c2)CC(C)(C)N1 [N1-(naphthalen-2-yl)-N2-(2,2,6,6-tetramethylpiperidin-4-yl)oxalamide] | < 4.00 |
| Cc1cc(NC(=O)C(=O)c2c[nH]c3ccccc23)ccc1Br [N-(4-bromo-3-methylphenyl)-2-(1H-indol-3-yl)-2-oxoacetamide] | < 4.00 |
| O=C(CSCc1cc(=O)[nH][nH]1)Nc1ccc(Br)cc1 [N-(4-bromophenyl)-2-((5-hydroxy-1H-pyrazol-3-yl)methylthio)acetamide] | < 4.00 |
| Cc1nn(C)cc1CN(C)CC(=O)Nc1ccc(Br)cc1 [N-(4-bromophenyl)-2-(((1,3-dimethyl-1H-pyrazol-4-yl)methyl)(methyl)amino)acetamide] | < 4.00 |
| CC(CC(=O)Nc1ccc(Br)cc1)Nc1cccc(CO)c1 (stereo not drawn) [N-(4-bromophenyl)-3-(3-(hydroxymethyl)phenylamino)butanamide] | < 4.00 |
| CC1CCCN(CCC(=O)Nc2ccc(Br)cc2)C1 (stereo not drawn) [N-(4-bromophenyl)-3-(3-methylpiperidin-1-yl)propanamide] | < 4.00 |
| O=C(Nc1ccc(Br)cc1)c1cc(CN2CCCC2)on1 [N-(4-bromophenyl)-5-(pyrrolidin-1-ylmethyl)isoxazole-3-carboxamide] | < 4.00 |
| CC1(C)CC(NCC(=O)Nc2ccc(Cl)c(F)c2)CC(C)(C)N1 [N-(4-chloro-3-fluorophenyl)-2-(2,2,6,6-tetramethylpiperidin-4-ylamino)acetamide] | < 4.00 |
